Source: patent US11155597B2, “Relaxin1 derived peptides for use in immunotherapy” (Immatics Biotechnologies GmbH, priority 2015, dated 2021)

tested on: CD8+ T cells of healthy HLA-A*02+ donors; assay: In vitro immunogenicity: T-cell priming with aAPCs loaded with peptide/MHC and anti-CD28, pMHC multimer readout; format: cell-based, human; conditions: HLA-A*02 restricted peptides; Table 6B
Excerpt: In order to obtain information regarding the immunogenicity of the TUMAPs of the present invention, the inventors performed investigations using an in vitro T-cell priming assay based on repeated stimulations of CD8+ T cells with artificial antigen presenting cells (aAPCs) loaded with peptide/MHC complexes and anti-CD28 antibody.
In order to perform in vitro stimulations by artificial antigen presenting cells loaded with peptide-MHC complex (pMHC) and anti-CD28 antibody, the inventors first isolated CD8+ T cells from fresh HLA-A*02 leukapheresis products via positive selection using CD8 microbeads (Miltenyi Biotec, Bergisch-Gladbach, Germany) of healthy donors obtained from the University clinics Mannheim, Germany, after informed consent. PBMCs and isolated CD8+ lymphocytes were incubated in T-cell medium (TCM) until use consisting of RPMI-Glutamax (Invitrogen, Karlsruhe, Germany) supplemented with 10% heat inactivated human AB serum (PAN-Biotech, Aidenbach, Germany), 100 U/ml Penicillin/100 μg/ml Streptomycin (Cambrex, Cologne, Germany), 1 mM sodium pyruvate (CC Pro, Oberdorla, Germany), 20 μg/ml Gentamycin (Cambrex). 2.5 ng/ml IL-7 (PromoCell, Heidelberg, Germany) and 10 U/ml IL-2 (Novartis Pharma, Nürnberg, Germany) were also added to the TCM at this step. Generation of pMHC/anti-CD28 coated beads, T-cell stimulations and readout was performed in a highly defined in vitro system using four different pMHC molecules per stimulation condition and 8 different pMHC molecules per readout condition.
The purified co-stimulatory mouse IgG2a anti human CD28 Ab 9.3 (Jung et al., 1987) was chemically biotinylated using Sulfo-N-hydroxysuccinimidobiotin as recommended by the manufacturer (Perbio, Bonn, Germany). Beads used were 5.6 μm diameter streptavidin coated polystyrene particles (Bangs Laboratories, Illinois, USA).
pMHC used for positive and negative control stimulations were A*0201/MLA-001 (peptide […] (SEQ ID NO. 289) from modified Melan-A/MART-1) and A*0201/DDX5-001 ([…] from DDX5, SEQ ID NO. 290), respectively.
800.000 beads/200 μl were coated in 96-well plates in the presence of 4×12.5 ng different biotin-pMHC, washed and 600 ng biotin anti-CD28 were added subsequently in a volume of 200 μl. Stimulations were initiated in 96-well plates by co-incubating 1×10^6 CD8+ T cells with 2×10^5 washed coated beads in 200 μl TCM supplemented with 5 ng/ml IL-12 (PromoCell) for 3 days at 37° C. Half of the medium was then exchanged by fresh TCM supplemented with 80 U/ml IL-2 and incubating was continued for 4 days at 37° C. This stimulation cycle was performed for a total of three times. For the pMHC multimer readout using 8 different pMHC molecules per condition, a two-dimensional combinatorial coding approach was used as previously described (Andersen et al., 2012) with minor modifications encompassing coupling to 5 different fluorochromes. Finally, multimeric analyses were performed by staining the cells with Live/dead near IR dye (Invitrogen, Karlsruhe, Germany), CD8-FITC antibody clone SK1 (BD, Heidelberg, Germany) and fluorescent pMHC multimers. For analysis, a BD LSRII SORP cytometer equipped with appropriate lasers and filters was used. Peptide specific cells were calculated as percentage of total CD8+ cells. Evaluation of multimeric analysis was done using the FlowJo software (Tree Star, Oregon, USA). In vitro priming of specific multimer+CD8+ lymphocytes was detected by comparing to negative control stimulations.
Exemplary flow cytometry results after TUMAP-specific multimer staining for peptide of the invention are shown in FIG. 3 together with corresponding negative controls.

Substance | Wells positive [%]
9 (SLITGQDLLSV; listed as Homo sapiens) [compound 9] | + (<20% = +)
254 (ALGDKFLLRV; listed as Homo sapiens) [compound 254] | + (<20% = +)
14 (YTFSGDVQL; listed as Homo sapiens) [compound 14] | + (<20% = +)
89 (SLAETIFIV; listed as Homo sapiens) [compound 89] | + (<20% = +)
157 (ILQDGQFLV; listed as Homo sapiens) [compound 157] | + (<20% = +)
236 (KMSELQTYV; listed as Homo sapiens) [compound 236] | + (<20% = +)
102 (GLYPVTLVGV; listed as Homo sapiens) [compound 102] | + (<20% = +)
27 (GLLGKVTSV; listed as Homo sapiens) [compound 27] | + (<20% = +)
17 (GLLPSAESIKL; listed as Homo sapiens) [compound 17] | + (<20% = +)
101 (SLLEVNEASSV; listed as Homo sapiens) [compound 101] | + (<20% = +)
233 (SLFESLEYL; listed as Homo sapiens) [compound 233] | + (<20% = +)
121 (ALYVQAPTV; listed as Homo sapiens) [compound 121] | + (<20% = +)
29 (KMISAIPTL; listed as Homo sapiens) [compound 29] | + (<20% = +)
97 (KLFEKSTGL; listed as Homo sapiens) [compound 97] | + (<20% = +)
50 (ILLSVLHQL; listed as Homo sapiens) [compound 50] | + (<20% = +)
35 (VIIKGLEEI; listed as Homo sapiens) [compound 35] | + (<20% = +)
260 (ALNESLVEC; listed as Homo sapiens) [compound 260] | + (<20% = +)
242 (KLQEEIPVL; listed as Homo sapiens) [compound 242] | + (<20% = +)
255 (FLMKNSDLYGA; listed as Homo sapiens) [compound 255] | + (<20% = +)
267 (YLLDMPLWYL; listed as Homo sapiens) [compound 267] | + (<20% = +)
257 (KLIDHQGLYL; listed as Homo sapiens) [compound 257] | + (<20% = +)
246 (ALAGIVTNV; listed as Homo sapiens) [compound 246] | + (<20% = +)
263 (SIIEYLPTL; listed as Homo sapiens) [compound 263] | + (<20% = +)
66 (AMFPDTIPRV; listed as Homo sapiens) [compound 66] | + (<20% = +)
4 (VLFGELPAL; listed as Homo sapiens) [compound 4] | + (<20% = +)
77 (ALYGNVQQV; listed as Homo sapiens) [compound 77] | + (<20% = +)
264 (TLHDQVHLL; listed as Homo sapiens) [compound 264] | + (<20% = +)

same assay, conditions: percentage of positive donors; Table 6A

Substance | in vitro immunogenicity: donors
288 (SLYKGLLSV; listed as Homo sapiens) [compound 288] | ++++ (> = 70% = ++++)

same assay, conditions: percentage of positive wells; Table 6A

Substance | in vitro immunogenicity: wells
287 (KIQEILTQV; listed as Homo sapiens) [compound 287] | + (<20% = +)
